Reference: the supplement of paper PMC10307832

What was measured:
Test in all cases: relative viability (nuclei count vs DMSO), 5 days (fraction); higher = more cells survive
NCI-H2087 = system: NCI-H2087
Method in brief: (§1)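 Lung cancer cell lines in 1536-well plates got either a single drug or a fixed anchor-drug dose together with five library-drug doses (not always all listed) in √10 steps, by pin tool, on the day after seeding. Nuclei were counted after 5 days, and relative viability is the treated-to-vehicle ratio of nuclei counts. Values are medians of duplicate plates.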

NCI-H2126 = system: NCI-H2126
Method in brief: as §1

NCI-H2347 = system: NCI-H2347
Method in brief: as §1

NCI-H23 = system: NCI-H23
Method in brief: as §1

NCI-H2405 = system: NCI-H2405
Method in brief: as §1

NCI-H322M = system: NCI-H322M
Method in brief: as §1

NCI-H520 = system: NCI-H520
Method in brief: as §1

NCI-H647 = system: NCI-H647
Method in brief: as §1

NCI-H650 = system: NCI-H650
Method in brief: as §1

NCI-H661 = system: NCI-H661
Method in brief: as §1

PC-14 = system: PC-14
Method in brief: as §1

RERF-LC-KJ = system: RERF-LC-KJ
Method in brief: as §1

`CC1(C)CCC(c2ccc(Cl)cc2)=C(CN2CCN(c3ccc(C(=O)NS(=O)(=O)c4ccc(N[C@H](CCN5CCOCC5)CSc5ccccc5)c(S(=O)(=O)C(F)(F)F)c4)cc3)CC2)C1` [Navitoclax] + CC(=O)c1c(C)c2cnc(Nc3ccc(N4CCNCC4)cn3)nc2n(C2CCCC2)c1=O [Palbociclib] (partner 0.5 µM) showed a relative viability (NCI-H2087; first compound 0.1581 µM) of 0.255, a relative viability (NCI-H2087; first compound 0.5 µM) of 0.257 and a relative viability (NCI-H2126; first compound 0.005 µM) of 0.35. It also gave a relative viability (NCI-H2126; first compound 0.01581 µM) of 0.355, a relative viability (NCI-H2126; first compound 0.05 µM) of 0.342 and a relative viability (NCI-H2126; first compound 0.1581 µM) of 0.303. For the same molecule, the relative viability (NCI-H2126; first compound 0.5 µM) was 0.366, the relative viability (NCI-H2347; first compound 0.005 µM) was 0.468 and the relative viability (NCI-H2347; first compound 0.01581 µM) was 0.48. It also gave a relative viability (NCI-H2347; first compound 0.05 µM) of 0.396, a relative viability (NCI-H2347; first compound 0.1581 µM) of 0.439 and a relative viability (NCI-H2347; first compound 0.5 µM) of 0.377. It also gave a relative viability (NCI-H23; first compound 0.005 µM) of 0.518, a relative viability (NCI-H23; first compound 0.01581 µM) of 0.53 and a relative viability (NCI-H23; first compound 0.05 µM) of 0.496. It also gave a relative viability (NCI-H23; first compound 0.1581 µM) of 0.446, a relative viability (NCI-H23; first compound 0.5 µM) of 0.534 and a relative viability (NCI-H2405; first compound 0.005 µM) of 0.501. For the same molecule, the relative viability (NCI-H2405; first compound 0.01581 µM) was 0.562, the relative viability (NCI-H2405; first compound 0.05 µM) was 0.562 and the relative viability (NCI-H2405; first compound 0.1581 µM) was 0.511. It also gave a relative viability (NCI-H2405; first compound 0.5 µM) of 0.506, a relative viability (NCI-H322M; first compound 0.005 µM) of 0.522 and a relative viability (NCI-H322M; first compound 0.01581 µM) of 0.534. The relative viability (NCI-H322M; first compound 0.05 µM) was 0.476, the relative viability (NCI-H322M; first compound 0.1581 µM) was 0.479 and the relative viability (NCI-H322M; first compound 0.5 µM) was 0.499. The relative viability (NCI-H520; first compound 0.005 µM) was 0.273, the relative viability (NCI-H520; first compound 0.01581 µM) was 0.25 and the relative viability (NCI-H520; first compound 0.05 µM) was 0.18. It also gave a relative viability (NCI-H520; first compound 0.1581 µM) of 0.182, a relative viability (NCI-H520; first compound 0.5 µM) of 0.217 and a relative viability (NCI-H647; first compound 0.005 µM) of 0.336. The relative viability (NCI-H647; first compound 0.01581 µM) was 0.359, the relative viability (NCI-H647; first compound 0.05 µM) was 0.24 and the relative viability (NCI-H647; first compound 0.1581 µM) was 0.414. The relative viability (NCI-H647; first compound 0.5 µM) was 0.344, the relative viability (NCI-H650; first compound 0.005 µM) was 0.326 and the relative viability (NCI-H650; first compound 0.01581 µM) was 0.35. For the same molecule, the relative viability (NCI-H650; first compound 0.05 µM) was 0.315, the relative viability (NCI-H650; first compound 0.1581 µM) was 0.304 and the relative viability (NCI-H650; first compound 0.5 µM) was 0.336. It also gave a relative viability (NCI-H661; first compound 0.005 µM) of 0.426, a relative viability (NCI-H661; first compound 0.01581 µM) of 0.451 and a relative viability (NCI-H661; first compound 0.05 µM) of 0.387. The relative viability (NCI-H661; first compound 0.1581 µM) was 0.435, the relative viability (NCI-H661; first compound 0.5 µM) was 0.384 and the relative viability (PC-14; first compound 0.005 µM) was 0.537. The relative viability (PC-14; first compound 0.01581 µM) was 0.466, the relative viability (PC-14; first compound 0.05 µM) was 0.607 and the relative viability (PC-14; first compound 0.1581 µM) was 0.528. For the same molecule, the relative viability (PC-14; first compound 0.5 µM) was 0.509, the relative viability (RERF-LC-KJ; first compound 0.005 µM) was 1.06 and the relative viability (RERF-LC-KJ; first compound 0.01581 µM) was 1.01. For the same molecule, the relative viability (RERF-LC-KJ; first compound 0.05 µM) was 1.14, the relative viability (RERF-LC-KJ; first compound 0.1581 µM) was 1.07 and the relative viability (RERF-LC-KJ; first compound 0.5 µM) was 1.01.
